Structures are written as SMILES.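 Tested at 5 concentrations; 48 h exposure; 96-well plates; endpoints linearly interpolated, else capped at highest concentration. TGI: concentration producing complete growth inhibition.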

The TGI is the concentration at which net growth stops. Read a high TGI as less potent growth arrest.

What all share (assay): DTP human tumour cell line panel, 48 h
The subject of assay [1] is UACC-62 melanoma.
Assay [2] concerns SF-295 CNS.
Assay [3] has as its system HCT-116 colon.
Assay [4] relates to SF-539 CNS.
The subject of assay [5] is MDA-MB-435.
For assay [6], the system named is HS 578T breast.
Assay [7] deals with PC-3 prostate.
In assay [8] the test system is SK-OV-3 ovarian.
Assay [9] has as its system M14 melanoma.
Assay [10] relates to NCI-H522 lung.
Assay [11] relates to OVCAR-5 ovarian.
Assay [12] concerns SR leukemia.
Assay [13] relates to HL-60(TB) leukemia.
The subject of assay [14] is NCI-H23 lung.
Assay [15] relates to HOP-62 NSCLC.
The test system of assay [16] is MDA-N.
Assay [17] has as its system COLO 205 colon.
The subject of assay [18] is SK-MEL-28 melanoma.
Assay [19] relates to UACC-257 melanoma.

As to `CC[C@](O)(CC(=O)O[C@H]1C(=O)O[C@@H]2C[C@H]3C(C)=CC(=O)[C@@H](O)[C@]3(C)[C@H]3[C@@]4(O)OC[C@]32[C@@H]1[C@@H](C)[C@H]4O)C(C)C`, the TGI in [1], in assay [2], in [3], in assay [4], in assay [5] and in [6] was < 0.01 µM in each case. Besides, the TGI in [7], in [8], in assay [9], in assay [10], in assay [11] and in assay [12] was < 0.01 µM throughout. Also, the TGI in [13], in [14], in assay [15], in [16], in [17] and in [18] was < 0.01 µM in each case. In addition, the TGI in [19] is < 0.01 µM.
For `CCOC(=O)C(C(=O)OCC)=C1NC2(c3ccccc3Nc3ccc(C)cc32)C(C#N)S1` (centres undefined), the TGI in assay [1] worked out at 26.8 µM; in [2], 58.7 µM; in assay [3] it was 22 µM; in [4] it was 12 µM; in [5], 23.5 µM; in [6] it was 46.5 µM. Moreover, the TGI was 13.7 µM in assay [7]; 98.9 µM in assay [8]; 17.6 µM in [9]; 30 µM in assay [10]; 27.7 µM in assay [11]; 4.99 µM in [12]. Further, the TGI in assay [13] was determined as 61.2 µM; in assay [14], 12.3 µM; in [15] it was 33.7 µM; in assay [16] it was 46.3 µM; in [17], 14.6 µM; in [18], 70.9 µM. Moreover, the TGI in assay [19] was determined as 45.6 µM.
Consider `COC(=O)c1c(O)ccc2c1c1c(n2Cc2ccccc2)C(=O)c2ccccc2C1=O`, for which the TGI was determined as 36.3 µM in [2]; 27.8 µM in assay [3]; 29.1 µM in [4]; 28 µM in assay [5]; 43.3 µM in assay [6]; 29.4 µM in assay [7]. The TGI amounted to 30.1 µM in [8]; 37.4 µM in assay [9]; 23.8 µM in assay [10]; 39.2 µM in assay [11]; 50.1 µM in assay [12]; 47.2 µM in assay [13]. The TGI in [14] is 31.6 µM; in assay [15], 38.8 µM; in [16], 56.3 µM; in assay [17] it was 3.32 µM; in assay [18] it was 31.7 µM; in [19] it was 32.8 µM.
Turning to `N#C/C(=C\c1cn(Cc2ccccc2)c2ccccc12)c1nn(-c2ccccc2)c(N)c1C#N`, the TGI was 23.6 µM in assay [1]; 26.4 µM in assay [2]; > 100 µM in assay [3]; 7.22 µM in assay [4]; 74.6 µM in assay [5]; > 100 µM in [6]. For the same compound, the TGI was 19.8 µM in assay [7]; 40 µM in assay [8]; 46.1 µM in assay [9]; 34.7 µM in assay [10]; 51.5 µM in assay [11]; > 100 µM in assay [12]. Further, the TGI in [13] is > 100 µM; in [14], 29.7 µM; in assay [16], 88.1 µM; in assay [17] it was 56.2 µM; in [18] it was > 100 µM; in assay [19], 50 µM.
Take `COC(=O)C1=C(O)C(C(=O)OC)[C@]2(O)[C@H](C(=O)OC)[C@H]1C[C@@H](c1ccc(F)cc1)[C@H]2C(=O)OC` (some centres undefined): the TGI worked out at 33.7 µM in assay [1]; 43.9 µM in [2]; 20.3 µM in assay [3]; 41 µM in assay [4]; 61 µM in [5]; 81.8 µM in assay [6]. Also, the TGI was found to be 33.2 µM in assay [7]; 77.6 µM in [8]; 27.5 µM in [9]; 37.5 µM in assay [11]; 47.5 µM in [12]; 7.24 µM in [13]. The TGI turned out to be 31 µM in [14]; 68.5 µM in assay [15]; 17.1 µM in [16]; 29.6 µM in assay [17]; 27.4 µM in assay [18]; 41.9 µM in assay [19].
With `COc1nc(C)nc2sc3c(c12)CCCC3`, the total growth inhibition concentration (TGI) in [1], in assay [2], in assay [3], in [5], in assay [6] and in assay [7] was > 100 µM each time. Moreover, the TGI in assay [10], in assay [11], in [12], in [13], in assay [14] and in [15] was > 100 µM throughout. The TGI in assay [16], in [17], in [18] and in assay [19] was > 100 µM throughout.
For the compound `O=C1CC(CC(O)[C@@H]2CCCC[C@@H]2O)CC(=O)N1c1ccccc1` (some centres undefined), the TGI in assay [1], in assay [2], in assay [3], in assay [4], in [5] and in [6] was > 100 µM each time. The TGI in assay [7], in assay [9], in assay [10], in assay [11], in [12] and in [13] was > 100 µM each time. The TGI in assay [14], in [15], in assay [16], in assay [18] and in assay [19] was > 100 µM each time.
Turning to `COc1cc(C2SCC(=O)N2c2ccccc2Cl)cc(OC)c1OC` (centres undefined), the TGI was > 100 µM in [1]; > 100 µM in assay [2]; > 100 µM in assay [3]; > 100 µM in [4]; 64.8 µM in assay [5]; > 100 µM in assay [6]. In addition, the TGI in assay [7], in assay [8], in assay [9], in assay [10], in [11] and in [12] was > 100 µM throughout. Also, the TGI in assay [13] was > 100 µM; in assay [14], > 100 µM; in [16], 44.8 µM; in assay [17] it was > 100 µM; in assay [18], > 100 µM; in assay [19], > 100 µM.
For `CN1C2CCC1CC(CCOC(c1ccc(F)cc1)c1ccc(F)cc1)C2` (centres undefined), the TGI in assay [2] came out at 30.8 µM; in assay [3], 27.4 µM; in [4], 29.9 µM; in [5], 25.7 µM; in [6] it was 44.5 µM; in [7] it was 29.6 µM. Also, the TGI in [8] was found to be 31.2 µM; in assay [9] it was 32.5 µM; in assay [10], 31.9 µM; in [11] it was 36.7 µM; in assay [12] it was 38.2 µM; in [13], 34.9 µM. Also, the TGI was found to be 42.1 µM in assay [14]; 30.9 µM in assay [15]; 37.5 µM in assay [16]; 24.1 µM in assay [17]; 31.7 µM in [18]; 34.1 µM in [19].
In the case of `Cc1cc(C)nc(NS(=O)(=O)c2ccc(Nc3c4ccccc4nc4c(C(=O)NNCCO)cccc34)cc2)n1`, the TGI in assay [1], in [2], in assay [5], in assay [6], in [7] and in [8] was > 100 µM in each case. Moreover, the TGI in [9], in [10], in assay [11], in [12], in [13] and in assay [14] was > 100 µM each time. The TGI in assay [15], in [16], in assay [17], in [18] and in assay [19] was > 100 µM throughout.
Consider `c1ccc2c(C3CCN(CCN4CCOCC4)C3)c[nH]c2c1` (centres undefined), for which the TGI in assay [1], in assay [2], in assay [3], in [5], in assay [6] and in assay [7] was > 100 µM each time. Also, the TGI in assay [8], in assay [9], in assay [10], in assay [11], in assay [12] and in assay [13] was > 100 µM in each case. Moreover, the TGI in assay [14], in assay [15], in assay [16], in assay [18] and in assay [19] was > 100 µM throughout.
As for `CO[C@H]1c2cccc3cccc(c23)[C@@H]1n1[nH]c(=O)n(C(C)(C)C)c1=O`, the TGI in assay [1], in assay [3], in assay [4], in assay [5], in [6] and in assay [7] was > 100 µM throughout. Besides, the TGI in assay [8], in [9], in assay [10], in [11], in assay [12] and in assay [13] was > 100 µM each time. The TGI in assay [14], in [16], in assay [17], in [18] and in assay [19] was > 100 µM throughout.
Take `CC1=NN(C(=O)CC(=O)Nc2ccc(C)cc2)C(=O)C1N=Nc1ccc(C(=O)O)cc1` (centres undefined): the TGI in [1], in assay [2], in assay [3], in assay [4], in assay [5] and in assay [6] was > 100 µM in each case. The TGI in assay [7], in [9], in assay [10], in [11], in [12] and in assay [13] was > 100 µM in each case. The TGI in assay [14], in [15], in assay [16], in assay [17], in assay [18] and in assay [19] was > 100 µM in each case.
With `CC12CCC3[C@@H](CC3(C)C)C(O)(CCC1=O)C2` (some centres undefined), the total growth inhibition concentration (TGI) in [1], in assay [2], in [3], in assay [4], in assay [5] and in [6] was > 100 µM each time. Also, the TGI in [7], in assay [8], in assay [9], in [11], in assay [12] and in [13] was > 100 µM throughout. For the same compound, the TGI in assay [14], in assay [15], in assay [16], in assay [17], in [18] and in assay [19] was > 100 µM in each case.
Take `Cc1c(C)c2c(c(N)c1C#N)C(=O)N(CCc1ccccc1)C2=O`: the TGI in assay [1], in [2], in assay [3], in assay [4], in [5] and in assay [6] was > 100 µM in each case. Besides, the TGI in assay [7], in [9], in assay [10], in [11], in [12] and in [13] was > 100 µM throughout. In addition, the TGI in [16], in assay [17], in assay [18] and in assay [19] was > 100 µM each time.

(Values after PubChem BioAssay (NCI).)
